# Data reported in BindingDB's records for doi:10.1021/acschembio.6b00304 (Icahn School of Medicine At Mount Sinai, 2016).
# Target: T1, Solute carrier family 2, facilitated glucose transporter member 1 (Homo sapiens, UniProt P11166)
# T1 sequence (P11166 whole entry): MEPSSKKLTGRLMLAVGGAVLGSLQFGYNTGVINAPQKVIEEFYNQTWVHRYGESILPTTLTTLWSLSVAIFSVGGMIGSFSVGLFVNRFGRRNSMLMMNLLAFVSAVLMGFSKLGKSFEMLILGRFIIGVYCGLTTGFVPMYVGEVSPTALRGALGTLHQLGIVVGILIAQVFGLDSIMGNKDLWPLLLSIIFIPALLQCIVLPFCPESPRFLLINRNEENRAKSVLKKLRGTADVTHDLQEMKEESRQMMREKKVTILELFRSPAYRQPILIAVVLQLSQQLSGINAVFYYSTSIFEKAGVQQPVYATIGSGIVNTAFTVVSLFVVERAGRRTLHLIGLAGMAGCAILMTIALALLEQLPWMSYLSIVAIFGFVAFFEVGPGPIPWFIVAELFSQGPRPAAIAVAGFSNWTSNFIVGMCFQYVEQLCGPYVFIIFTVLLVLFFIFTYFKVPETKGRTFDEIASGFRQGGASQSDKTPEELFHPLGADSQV
# Assay: [3H]-2-Deoxy-D-glucose ([3H]-2-DG) Uptake Assay
# Description: The stably transfected CHO cells were seeded in poly 24-well plates and were grown to 80−90% confluence. […] The known hGLUT1 inhibitor phloretin (Accela ChemBio, San Diego, CA) was included as a positive control. […] Compounds were obtained from the National Cancer Institute (NCI) or purchased from commercial vendors. The reaction was terminated by washing cells twice with ice-cold PBS, followed by the addition of 200 μL of lysis buffer (0.1% (w/v) SDS, 0.1 N NaOH).Intracellular radioactivity was determined by scintillation counting.
row,IC50,Compound
1,58.6 µM,O=c1[nH]c(=O)c2ncn(-c3ccccc3)c2[nH]1 [PUG-2]
2,27.1 µM,NNc1nc(NCc2ccco2)c2nc[nH]c2n1 [PUG-3]
3,30 µM,c1ccc(CNc2ncnc3n[nH]nc23)cc1 [PUG-4]
4,23 µM,O=C(CCc1ccc(O)cc1)c1c(O)cc(O)cc1O[C@H]1O[C@@H](CO)[C@H](O)[C@@H](O)[C@@H]1O [PUG-5 (Phlorizin)]
5,37.9 µM,CC[C@@H]1O[C@H](c2cc(O)cc(/C=C/c3ccc(O)c(O)c3)c2)[C@@H](O)[C@H](O)[C@H]1O [PUG-6]
6,11.8 µM,O=c1[nH]ncc2c1Sc1cn[nH]c(=O)c1S2 [PUG-7]
7,22.5 µM,O=c1[nH][nH]c(=O)c2[nH]cnc12 [PUG-8]
